According to patent US20250288547A1, “TREATMENT OF DISEASES CAUSED BY RNA VIRUSES” (Amerimmune LLC, priority 2021, published 2025):

How the values were obtained:
caspase-3 = molecular target: T1, caspase-3 (Homo sapiens, UniProt P42574); test: Caspase-3 in red blood cells incubated with patient plasma (Example 9); format: cell-based
T1 construct: endogenous in cells; host or cells: human red blood cells incubated with patient plasma
T1 sequence (P42574 29-175 limits assumed): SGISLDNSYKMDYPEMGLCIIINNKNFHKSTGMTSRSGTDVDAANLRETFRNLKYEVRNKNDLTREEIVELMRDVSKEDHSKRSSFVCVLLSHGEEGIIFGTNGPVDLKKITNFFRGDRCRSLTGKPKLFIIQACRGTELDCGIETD
T1 sequence (P42574 176-277 limits assumed): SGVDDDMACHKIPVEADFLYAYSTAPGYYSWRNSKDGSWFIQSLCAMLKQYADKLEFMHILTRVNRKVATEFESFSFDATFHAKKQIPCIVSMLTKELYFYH

mild COVID-19 = test: Phase 1 double-blinded placebo-controlled safety and tolerability study in symptomatic outpatient mild-COVID-19 patients (Example 10); format: in vivo, human
Procedure: A double-blinded, placebo-controlled randomized safety and tolerability study (1:1 active: placebo) was performed in a number symptomatic outpatient mild-COVID-19 patients receiving standard of care therapy. A total of 13 patients were enrolled at a single site in New York City. Treatment involved administering Emricasan (EMR) (or placebo) at 25 mg BID dosing for 14 days, with follow-up for an additional month. […] This study was thus designed to evaluate safety and tolerability, with the primary endpoint being the difference, if any, between treatment-related adverse events (AEs), including severe adverse events (SAEs), if any, in the active (EMR) and placebo groups through day 14. The pharmacokinetics (PK) of EMR has been extensively studied in earlier clinical trials. Accordingly, patients in this Phase 1 study were sampled at the end of the study to confirm that Emricasan pharmacokinetics was not altered in COVID-19 patients. Secondary endpoints included various clinical and laboratory measures and patient reported outcomes (PROs) using a COVID-19-related assessment tool.

caspase-1 = molecular target: T2, caspase-1 (Homo sapiens, UniProt P29466); test: Ex vivo active caspase-1 in CD4 T cells, whole blood incubated with caspase inhibitors with or without nigericin (Example 9); format: cell-based; conditions: inhibitor incubation, 24 hrs later with or without nigericin; for T-helper cell caspase-1 expression: COVID-19 whole blood samples
T2 sequence (P29466 120-297 limits assumed): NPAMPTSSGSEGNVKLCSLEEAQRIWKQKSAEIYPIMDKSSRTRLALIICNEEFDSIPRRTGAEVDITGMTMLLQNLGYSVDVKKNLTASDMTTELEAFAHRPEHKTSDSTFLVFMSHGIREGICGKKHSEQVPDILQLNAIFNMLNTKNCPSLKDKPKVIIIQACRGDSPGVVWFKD
T2 sequence (P29466 317-404 limits assumed): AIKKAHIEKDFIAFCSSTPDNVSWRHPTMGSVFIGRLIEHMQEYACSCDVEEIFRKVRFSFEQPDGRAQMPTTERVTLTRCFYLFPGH

Caspase 1 = Caspase 1 (Homo sapiens, UniProt P29466); test: Active caspase-1 FLICA flow cytometry, whole blood from COVID-19 (+) patients incubated with Emricasan (Example 7); format: cell-based; design: dose or concentration left out as unconfirmed; conditions: 17 hours (overnight) room temperature on a rocker, 3 samples from COVID-19 patients
Procedure: Whole blood from COVID-19 (+) patients was incubated either (A) without addition of Emricasan (Untreated) or (B) with Emricasan (Sigma Aldrich, MO, SML2227-5 MG), 1 μM final concentration for 3.5 hours at room temperature (Treated). Following incubation with or without Emricasan, PBMCs were purified using an Accuspin System—Histopaque 1077 (Sigma Aldrich, MO, A6929) as per the manufacturer's instructions. Purified Treated and Untreated PBMCs were incubated with nigericin (Immunochemistry Technologies, MN) as per the manufacturer's instructions for 2 hours. […] PMBCs were washed with cell wash buffer (Immunochemistry Technologies, MN) to remove unbound FLICA probes. Washed PBMCs were FACS-sorted using CD45 PE-CY7 [HI30], CD3 AF700 [UCHT1], CD4 PE [RPA-T4], CD45RO PerCP-EF710 [UCHL1], and Viability Dye 780 (Thermo Fisher Scientific, Carlsbad, CA) to identify viable CD3-cells as well as CD3+ cells and CD3+CD4+ T cells. Lymphocytes were identified using a standard gating schematic that incorporated gating of lymphocytes on a FSC/SSC plot and singlets on a FSC-A/FSC-H plot. Lymphocytes were further identified as CD45+ on a CD45/SSC plot and subsequent CD3−, CD3+, and CD3+CD4+ cells were identified on a CD45+CD3/CD4 plot.
In another experiment, whole blood was incubated with […] Emricasan for 17 hours (overnight between 5 PM to 10 AM) at room temperature on a rocker. […]

[1] = in vivo; cited from earlier work
[2] = tested on: red blood cell (RBC) layer in the PBMC layer (RBC aggregation); test: “Red ring” (contaminating RBC layer in PBMC layer) in COVID-19 patient samples; format: cell-based, human; conditions: PBMCs from COVID-19 patient samples, 1 micromolar, room temperature, 17 hours
Excerpt: One of the observations made during the preparation of peripheral blood mononuclear cells (PBMC) for some of the experiments described herein was the presence of a contaminating red blood cell (RBC) layer in the PBMC layer, which was referred to as a “red ring”. This “red ring” was present in all COVID-19 patient samples, with no difference between critically ill patients and those who were only on supportive care outside the ICU setting (see FIG. 12A).
When PBMCs isolated from COVID-19 patient samples were incubated with Emricasan (1 micromolar) at room temperature for 17 hours, a decrease in the “red ring” was observed.

ACE-2 receptor = conditions: subsequent reports; cited from earlier work
[3] = molecular target: T3, main protease of SARS-COV-2 (Severe acute respiratory syndrome coronavirus 2, UniProt P0DTD1); conditions: subsequent reports; cited from earlier work
T3 construct: the main protease of SARS-COV-2

Compound: C[C@H](NC(=O)C(=O)Nc1ccccc1C(C)(C)C)C(=O)N[C@@H](CC(=O)O)C(=O)COc1c(F)c(F)cc(F)c1F [Emricasan, (3S)-3-{[(2S)-2-{[2-(2-tert-butylanilino)-2-oxoacetyl]amino}propanoyl]amino}-4-oxo-5-(2,3,5,6-tetrafluorophenoxy) pentanoic acid]
- RBC caspase-3 up-regulation (caspase-3; healthy subjects' RBCs, COVID-19 plasma incubated samples): suppressed
- RBC baseline caspase-3 expression levels (caspase-3; influenza-plasma incubated samples): did not change
- serious adverse events (mild COVID-19; 25 mg BID 14 days, mild COVID-19 outpatients): no reports of serious adverse events
- safety and tolerability (mild COVID-19; 25 mg BID 14 days, during 2 weeks of dosing and at week 10 follow up, compared to placebo): safe and well tolerated
- resolution of symptoms most commonly associated with mild COVID-19 (cough, headache, fatigue) (mild COVID-19; patients who completed treatment, at day 7, continued through Day 45): complete resolution
- T-helper cell caspase-1 expression (caspase-1): suppressed
- T-helper cell caspase-1 upregulation (caspase-1; healthy subjects' whole blood): prevented its upregulation
- samples showing inhibition of nigericin-induced Caspase-1 activity (Caspase 1): ⅓
- safety and tolerance profile [1]: excellent safety and tolerance profile
- “red ring” (contaminating RBC layer in PBMC layer) [2]: decrease
- inhibition of ACE-2 receptor binding activity for SARS-COV-2 (ACE-2 receptor): inhibit the binding activity
- inhibition of main protease activity [3]: may also inhibit

Compound: CCO[C@@H]1OC(=O)C[C@@H]1NC(=O)[C@@H]1CCCN1C(=O)[C@@H](NC(=O)c1ccc(N)c(Cl)c1)C(C)(C)C [VX765, Belnacasan]
- T-helper cell caspase-1 expression (caspase-1): did not show a strong similar suppressive effect
